# Source: US20210358575A1, “A METHOD FOR DETERMINING THE EFFICACY OF TREATMENT WITH A COMBINATION OF DRUGS IN A SUBJECT DIAGNOSED WITH A DISEASE AND A METHOD FOR CLASSIFYING THE UTILITY OF DRUG COMBINATIONS IN TREATMENT OF SAID SUBJECT” (priority 2018, published 2021)
# Key:
# [1] = test system: live pathological cells (LPC) in bone marrow samples of AML patients; test: PharmaFlow PM test: ex vivo drug sensitivity of whole bone marrow samples, population pharmacodynamic models; format: cell-based, human; conditions: typical population value
# Experimental: Ex vivo drug sensitivity analysis was made using the PharmaFlow platform (previously termed ExviTech®) maintaining the bone marrow (BM) microenvironment. A minimum BM sample volume between one and two mL was collected by aspiration at AML diagnosis, before starting induction chemotherapy, and was processed by an automated method 24 hours after extraction. Samples were incubated with CYT, IDA and/or CYT+IDA for 48 hours. A more detailed description of the procedure has been published elsewhere (Bennett, et al 2014).
# Evaluation of drug response was done by counting the number of live pathological cells (LPC) remaining after incubation at increasing drug concentrations (Upton and Mould 2014). Dying cells (apoptosis) were excluded using Annexin V-FITC. Pharmacological responses were analyzed using PD population-based models (Upton and Mould 2014) which essentially perform the fitting of the dependent variable (natural log of LPC) in a non-linear mixed-effects model to derive typical population values (fixed effects) and the magnitude of inter-patient and residual variability (random effects).
# Model development was performed with the first-order conditional estimation method using interaction option with the software NONMEM (v7.2) (Beal, et al 1989-2001), according to the following equation: […]
# Where LPC0 (LCTi0) parameter refers to the number of LPC (LCTi) after incubation in the absence of drug, Emax represents the maximum fractional decrease in LPC that the drug can elicit, EC50, is the drug concentration exerting half of Emax, and γ is the parameter governing the steepness of the LPC vs drug concentration (C) curve. For interaction analysis a Surface Interaction model (Greco, et al 1995) was used to estimate the degree of synergy, referred as a parameter, between both drugs. Interpatient variability (IPV) associated to all parameters was described by means of an exponential model of the components of variance. An additive error structure was used for the residual variability. Population PD models were built with bone marrow (BM) samples from 473 patients that were incubated with CYT, 456 with IDA and 443 with CYT+IDA. Bayesian estimation methods were then used to retrieve individual patient parameters based on their available exposure-response measurements in conjunction with the PD population parameters.
# Individual response profiles normalized with respect to LPC0 (LCTi0), were integrated between the concentration points corresponding to the 20th and 80th percentiles of the distribution of estimated individual EC50 values, to obtain the values of the areas under the curves (AUCs) that were used as a descriptor of the ex vivo drug effect (i.e. the higher the AUC, the lower the cytotoxic effect (efficacy or potency) of the drug.
# [2] = test system: first-line AML patients treated with CYT+IDA; test: Validation of PM Test score vs clinical response in 112 first-line AML samples; format: in vivo, human; conditions: 112 AML patients treated with CYT+IDA
# Description: The Precision Medicine (PM) Test as described ranks treatments by a score that estimates the activity of each treatment across a population of patient samples. Higher score represents more ex vivo sensitivity to treatment, while lower score represents less ex vivo sensitivity to treatment, i.e. more ex vivo resistance. A particular format of the results of the PM Test is shown in FIG. 19, panels A and B, wherein the ranking of treatments by activity score from 100%=best to 0%=worst is shown (score may be represented graphically using a colour/tone gradient or categorisation). The following 3 categories are identified:
# To validate the predictive power of these PM Test score results, the set of 123 samples treated homogeneously with CYT+IDA that were used in the correlation study of Example 1 were employed. Only 112 samples were used for validation. To evaluate the predictive power of the PM Test score, in the format shown in FIG. 19, panel A referring to a sensitive patient we can only use patients predicted to be sensitive or resistant. Treatments having intermediate scores are not considered sufficiently strong to predict any response. In the case of intermediate scores, other factors such as pharmacokinetics may be more important than the score. On the other hand, extreme scores are more likely to prevail over other factors such as pharmacokinetics.
# The set of data of 112 patients treated with CYT+IDA represents a 1st line treatment of AML with a 72% response rate. This means that 72% of these 112 patients achieved Complete Remission (CR) clinically. The majority of patients were sensitive, with fewer resistant patients. Thus, the statistics are improved by calculating the % of cases in which the PM Test score predicted patients to be sensitive to the ex vivo treatment. This means selecting only the treatments to which the patient is expected to be very sensitive, with scores between 80-100%. The % of accurate prediction of sensitive (responsive) patients is referred as the Negative Predicted Value (NPV).
# Samples whose score are between this variable threshold and 100% are analysed and predicted as sensitive because they have the top score. The results are shown for the monotherapies CYT and IDA, and for the combination treatment. Focus was placed on the combination treatment CYT+IDA that was administered to patients. Columns 8 to 10 of Table 4 show the results for the combined treatment CYT+IDA for different thresholds. The lowest threshold 55%, which means between 55 and 100%, identifies 93 out of the 112 samples, that would be predicted as sensitive. […] Thus, the prediction accuracy or NPV is 77/93=82.8%. As the threshold is increased (descending the 1st column of Table 4), the range of scores included is narrowed because the maximum is always 100%. Consequently, as the threshold is increased, the total number of samples included diminishes, reaching 0 samples at 100% (100-100%) and 18 samples at 95%. The decrease can be observed in the number of either sensitive or resistant samples (descending columns 8 and 9 of Table 4). […] Thus, the higher the score, the better the prediction (moreover, the intermediate sensitivity values provide less accurate prediction than the extreme values).
# [3] = test system: bone marrow samples of acute lymphoid leukemia (ALL) patients; test: Ex vivo test of single drugs, EC50 compared with population distribution, acute lymphoid leukemia samples; format: cell-based, human; conditions: ALL second line patient VIVIA-PMALL04001, 48 h
# Experimental: Bone marrow samples were obtained from three adult patients diagnosed with MM (VIVIA-PMMM010431, VIVIA-PMMM060111 and VIVIA-PMMM130061) and three adult patients diagnosed with ALL (VIVIA-PMALL07002, VIVIA-PMALL04001 and VIVIA-PMALL09001). Following the same experimental design as described for examples 1 and 3, said bone marrow samples were incubated for 48 h in well plates containing the single drugs shown in FIGS. 21 to 26. After the measurement of pathological populations by flow cytometry, pharmacological response parameters were estimated using population pharmacodynamic models. The most representative parameter of drug potency, the EC50, was used for a comparative analysis of the results provided by said bone marrow samples with respect to the statistical distribution of the same parameter observed in a population of samples and stored in the database. Such populations varied in size depending on the drug, being always over one hundred individuals in the case of MM and between 15 and 21 individuals in the case of ALL.
compound,measurement,setting,value
"CC(=O)[C@]1(O)Cc2c(O)c3c(c(O)c2[C@@H](O[C@H]2C[C@H](N)[C@H](O)[C@H](C)O2)C1)C(=O)c1ccccc1C3=O [Idarubicin, idarubicin]",EC50,"[1]; Homo sapiens, AML bone marrow samples, 48 h incubation",87 nM
same,EMAX (maximum fractional decrease in LPC),"[1]; set to 1 in the model, 48 h",1
same,γ (steepness of LPC vs concentration curve),[1]; 48 h,1.14
same,"% Sens. (percentage of patients sensitive to therapy, NPV)",[2]; PM Test score ≥55,84.8%
same,Res. (number of patients resistant to therapy),[2]; PM Test score ≥55,12
same,Sens. (number of patients sensitive to therapy),[2]; PM Test score ≥55,67
same,"% Sens. (percentage of patients sensitive to therapy, NPV)",[2]; PM Test score ≥60,84.9%
same,Res. (number of patients resistant to therapy),[2]; PM Test score ≥60,11
same,Sens. (number of patients sensitive to therapy),[2]; PM Test score ≥60,62
same,"% Sens. (percentage of patients sensitive to therapy, NPV)",[2]; PM Test score ≥65,87.0%
same,Res. (number of patients resistant to therapy),[2]; PM Test score ≥65,9
same,Sens. (number of patients sensitive to therapy),[2]; PM Test score ≥65,60
same,"% Sens. (percentage of patients sensitive to therapy, NPV)",[2]; PM Test score ≥70,86.6%
same,Res. (number of patients resistant to therapy),[2]; PM Test score ≥70,9
same,Sens. (number of patients sensitive to therapy),[2]; PM Test score ≥70,58
same,"% Sens. (percentage of patients sensitive to therapy, NPV)",[2]; PM Test score ≥75,85.2%
same,Res. (number of patients resistant to therapy),[2]; PM Test score ≥75,9
same,Sens. (number of patients sensitive to therapy),[2]; PM Test score ≥75,52
same,"% Sens. (percentage of patients sensitive to therapy, NPV)",[2]; PM Test score ≥80,85.7%
same,Res. (number of patients resistant to therapy),[2]; PM Test score ≥80,8
same,Sens. (number of patients sensitive to therapy),[2]; PM Test score ≥80,48
same,"% Sens. (percentage of patients sensitive to therapy, NPV)",[2]; PM Test score ≥85,86.5%
same,Res. (number of patients resistant to therapy),[2]; PM Test score ≥85,7
same,Sens. (number of patients sensitive to therapy),[2]; PM Test score ≥85,45
same,"% Sens. (percentage of patients sensitive to therapy, NPV)",[2]; PM Test score ≥90,88.4%
same,Res. (number of patients resistant to therapy),[2]; PM Test score ≥90,5
same,Sens. (number of patients sensitive to therapy),[2]; PM Test score ≥90,38
same,"% Sens. (percentage of patients sensitive to therapy, NPV)",[2]; PM Test score ≥95,96.8%
same,Res. (number of patients resistant to therapy),[2]; PM Test score ≥95,1
same,Sens. (number of patients sensitive to therapy),[2]; PM Test score ≥95,30
same,Res. (number of patients resistant to therapy),[2]; PM Test score ≥100,0
same,Sens. (number of patients sensitive to therapy),[2]; PM Test score ≥100,0
same,ex vivo activity,[3],very potent activity
